Assay results published in patent publication US20090156518A1, “STABLE PHARMACEUTICAL COMPOSITION COMPRISING BETA-LACTAM ANTIBIOTIC AND BUFFER” (priority 2006, published 2009).

Assay: amounts of β-lactam antibiotic, β-lactamase inhibitor (C18 reverse-phase LC, UV-VIS) and aminoglycoside (HPLC-ELSD) in solution over time
Format: physicochemical
Protocol: The amounts of β-lactam antibiotics and β-lactamase inhibitor were determined using C18 reverse-phase LC and UV-VIS detector (Tianjin Hemay BioTech Co., Ltd., analysis method No. HM-K-03). The content of aminoglycoside antibiotics was measured using reverse-phase HPLC and evaporation-light-scattering detector (ELSD detector) (Tianjin Hemay BioTech Co., Ltd., analysis method No. HM-K-08). The amount of antibiotic component at each time point was expressed as a percentage with respect to the amount at the initial time (herein defined as 100%). The relative amount of each antibiotic component in the composition at each time point was expressed as peak area ratio with respect to the corresponding peak area of an external standard.

CCN1CCN(C(=O)N[C@@H](C(=O)N[C@@H]2C(=O)N3C(C(=O)O)=C(CSc4nnnn4C)CS[C@H]23)c2ccc(O)cc2)C(=O)C1=O [Cefoperazone sodium]
amount of component as percentage with respect to the amount at the initial time (Example 4: cefoperazone sodium 4 g, sulbactam sodium 0.5 g, gentamicin 80 mg, citrate pH 6.75, 200 mL water, room temperature, Time 0 h): 101.4% | amount of component as percentage with respect to the amount at the initial time (Example 4: cefoperazone sodium 4 g, sulbactam sodium 0.5 g, gentamicin 80 mg, citrate pH 6.75, 200 mL water, room temperature, Time 1 h): 98.66% | amount of component as percentage with respect to the amount at the initial time (Example 4: cefoperazone sodium 4 g, sulbactam sodium 0.5 g, gentamicin 80 mg, citrate pH 6.75, 200 mL water, room temperature, Time 2 h): 98.79% | amount of component as percentage with respect to the amount at the initial time (Example 4: cefoperazone sodium 4 g, sulbactam sodium 0.5 g, gentamicin 80 mg, citrate pH 6.75, 200 mL water, room temperature, Time 4 h): 101.5% | amount of component as percentage with respect to the amount at the initial time (Example 4: cefoperazone sodium 4 g, sulbactam sodium 0.5 g, gentamicin 80 mg, citrate pH 6.75, 200 mL water, room temperature, Time 6 h): 107.4% | amount of component as percentage with respect to the amount at the initial time (Example 5: freeze-dried cefoperazone sodium 4 g, sulbactam sodium 0.5 g, citrate pH 6.75, + amikacin sulfate 500 mg, 7 days 0° C., dissolved in 100 mL water, Time 0 h): 101.4% | amount of component as percentage with respect to the amount at the initial time (Example 5: freeze-dried cefoperazone sodium 4 g, sulbactam sodium 0.5 g, citrate pH 6.75, + amikacin sulfate 500 mg, 7 days 0° C., dissolved in 100 mL water, Time 1 h): 98.66% | amount of component as percentage with respect to the amount at the initial time (Example 5: freeze-dried cefoperazone sodium 4 g, sulbactam sodium 0.5 g, citrate pH 6.75, + amikacin sulfate 500 mg, 7 days 0° C., dissolved in 100 mL water, Time 2 h): 98.79% | amount of component as percentage with respect to the amount at the initial time (Example 5: freeze-dried cefoperazone sodium 4 g, sulbactam sodium 0.5 g, citrate pH 6.75, + amikacin sulfate 500 mg, 7 days 0° C., dissolved in 100 mL water, Time 4 h): 101.5% | amount of component as percentage with respect to the amount at the initial time (Example 5: freeze-dried cefoperazone sodium 4 g, sulbactam sodium 0.5 g, citrate pH 6.75, + amikacin sulfate 500 mg, 7 days 0° C., dissolved in 100 mL water, Time 6 h): 107.4% | amount of component as percentage with respect to the amount at the initial time (Example 6: freeze-dried cefoperazone sodium 4 g, sulbactam sodium 1 g, citrate pH 6.75, + etimicin sulfate 200 mg, 7 days 0° C., dissolved in 100 mL water, Time 0 h): 110.4% | amount of component as percentage with respect to the amount at the initial time (Example 6: freeze-dried cefoperazone sodium 4 g, sulbactam sodium 1 g, citrate pH 6.75, + etimicin sulfate 200 mg, 7 days 0° C., dissolved in 100 mL water, Time 1 h): 99.48% | amount of component as percentage with respect to the amount at the initial time (Example 6: freeze-dried cefoperazone sodium 4 g, sulbactam sodium 1 g, citrate pH 6.75, + etimicin sulfate 200 mg, 7 days 0° C., dissolved in 100 mL water, Time 2 h): 101.3% | amount of component as percentage with respect to the amount at the initial time (Example 6: freeze-dried cefoperazone sodium 4 g, sulbactam sodium 1 g, citrate pH 6.75, + etimicin sulfate 200 mg, 7 days 0° C., dissolved in 100 mL water, Time 4 h): 98.66% | amount of component as percentage with respect to the amount at the initial time (Example 6: freeze-dried cefoperazone sodium 4 g, sulbactam sodium 1 g, citrate pH 6.75, + etimicin sulfate 200 mg, 7 days 0° C., dissolved in 100 mL water, Time 6 h): 98.02% | amount of component as percentage with respect to the amount at the initial time (Example 6: freeze-dried cefoperazone sodium 4 g, sulbactam sodium 1 g, citrate pH 6.75, + etimicin sulfate 200 mg, 7 days 0° C., dissolved in 100 mL water, Time 8 h): 99.30% | amount of component as percentage with respect to the amount at the initial time (Example 14: freeze-dried cefoperazone sodium 4 g, sulbactam sodium 2 g, citrate pH 6.75, 7 days 0° C., in 100 mL water, 10 mL + gentamicin sulfate 16 mg, room temperature, Time 0 h): 98.42% | amount of component as percentage with respect to the amount at the initial time (Example 14: freeze-dried cefoperazone sodium 4 g, sulbactam sodium 2 g, citrate pH 6.75, 7 days 0° C., in 100 mL water, 10 mL + gentamicin sulfate 16 mg, room temperature, Time 1 h): 97.39% | amount of component as percentage with respect to the amount at the initial time (Example 14: freeze-dried cefoperazone sodium 4 g, sulbactam sodium 2 g, citrate pH 6.75, 7 days 0° C., in 100 mL water, 10 mL + gentamicin sulfate 16 mg, room temperature, Time 2 h): 97.46% | amount of component as percentage with respect to the amount at the initial time (Example 14: freeze-dried cefoperazone sodium 4 g, sulbactam sodium 2 g, citrate pH 6.75, 7 days 0° C., in 100 mL water, 10 mL + gentamicin sulfate 16 mg, room temperature, Time 4 h): 94.70% | amount of component as percentage with respect to the amount at the initial time (Example 14: freeze-dried cefoperazone sodium 4 g, sulbactam sodium 2 g, citrate pH 6.75, 7 days 0° C., in 100 mL water, 10 mL + gentamicin sulfate 16 mg, room temperature, Time 6 h): 93.02% | amount of component as percentage with respect to the amount at the initial time (Example 15: freeze-dried cefoperazone sodium 4 g, sulbactam sodium 4 g, citrate pH 6.75, 7 days 0° C., in 100 mL water, 10 mL + gentamicin sulfate 16 mg, room temperature, Time 0 h): 101.7% | amount of component as percentage with respect to the amount at the initial time (Example 15: freeze-dried cefoperazone sodium 4 g, sulbactam sodium 4 g, citrate pH 6.75, 7 days 0° C., in 100 mL water, 10 mL + gentamicin sulfate 16 mg, room temperature, Time 1 h): 96.06% | amount of component as percentage with respect to the amount at the initial time (Example 15: freeze-dried cefoperazone sodium 4 g, sulbactam sodium 4 g, citrate pH 6.75, 7 days 0° C., in 100 mL water, 10 mL + gentamicin sulfate 16 mg, room temperature, Time 2 h): 95.72% | amount of component as percentage with respect to the amount at the initial time (Example 15: freeze-dried cefoperazone sodium 4 g, sulbactam sodium 4 g, citrate pH 6.75, 7 days 0° C., in 100 mL water, 10 mL + gentamicin sulfate 16 mg, room temperature, Time 4 h): 97.32% | amount of component as percentage with respect to the amount at the initial time (Example 15: freeze-dried cefoperazone sodium 4 g, sulbactam sodium 4 g, citrate pH 6.75, 7 days 0° C., in 100 mL water, 10 mL + gentamicin sulfate 16 mg, room temperature, Time 6 h): 69.95% | amount of component as percentage with respect to the amount at the initial time (Example 16: 10 mL of the final solution (cefoperazone sodium, tazobactam sodium, etimicin sulfate, citrate) + gentamicin sulfate 16 mg, Time 0 h): 92.44% | amount of component as percentage with respect to the amount at the initial time (Example 16: 10 mL of the final solution (cefoperazone sodium, tazobactam sodium, etimicin sulfate, citrate) + gentamicin sulfate 16 mg, Time 1 h): 104.6% | amount of component as percentage with respect to the amount at the initial time (Example 16: 10 mL of the final solution (cefoperazone sodium, tazobactam sodium, etimicin sulfate, citrate) + gentamicin sulfate 16 mg, Time 2 h): 102.4% | amount of component as percentage with respect to the amount at the initial time (Example 16: 10 mL of the final solution (cefoperazone sodium, tazobactam sodium, etimicin sulfate, citrate) + gentamicin sulfate 16 mg, Time 4 h): 97.95% | amount of component as percentage with respect to the amount at the initial time (Example 16: 10 mL of the final solution (cefoperazone sodium, tazobactam sodium, etimicin sulfate, citrate) + gentamicin sulfate 16 mg, Time 6 h): 98.90% | amount of component as percentage with respect to the amount at the initial time (Example 16: 10 mL of the final solution (cefoperazone sodium, tazobactam sodium, etimicin sulfate, citrate) + gentamicin sulfate 16 mg, Time 8 h): 102.9% | amount of component as percentage with respect to the amount at the initial time (Example 16: freeze-dried cefoperazone sodium 4 g, tazobactam sodium 1 g, citrate pH 6.75, 7 days 0° C., in 100 mL water, 10 mL + etimicin sulfate 20 mg, room temperature, Time 0 h): 102.9% | amount of component as percentage with respect to the amount at the initial time (Example 16: freeze-dried cefoperazone sodium 4 g, tazobactam sodium 1 g, citrate pH 6.75, 7 days 0° C., in 100 mL water, 10 mL + etimicin sulfate 20 mg, room temperature, Time 1 h): 108.6% | amount of component as percentage with respect to the amount at the initial time (Example 16: freeze-dried cefoperazone sodium 4 g, tazobactam sodium 1 g, citrate pH 6.75, 7 days 0° C., in 100 mL water, 10 mL + etimicin sulfate 20 mg, room temperature, Time 2 h): 104.6% | amount of component as percentage with respect to the amount at the initial time (Example 16: freeze-dried cefoperazone sodium 4 g, tazobactam sodium 1 g, citrate pH 6.75, 7 days 0° C., in 100 mL water, 10 mL + etimicin sulfate 20 mg, room temperature, Time 4 h): 99.50% | amount of component as percentage with respect to the amount at the initial time (Example 16: freeze-dried cefoperazone sodium 4 g, tazobactam sodium 1 g, citrate pH 6.75, 7 days 0° C., in 100 mL water, 10 mL + etimicin sulfate 20 mg, room temperature, Time 6 h): 98.91% | amount of component as percentage with respect to the amount at the initial time (Example 16: freeze-dried cefoperazone sodium 4 g, tazobactam sodium 1 g, citrate pH 6.75, 7 days 0° C., in 100 mL water, 10 mL + etimicin sulfate 20 mg, room temperature, Time 8 h): 103.4% | amount of component as percentage with respect to the amount at the initial time (Example 17: freeze-dried cefoperazone sodium 4 g, sulbactam sodium 1 g, citrate pH 6.75, 7 days 0° C., in 100 mL water, 10 mL + amikacin sulfate 40 mg, room temperature, Time 0 h): 92.30% | amount of component as percentage with respect to the amount at the initial time (Example 17: freeze-dried cefoperazone sodium 4 g, sulbactam sodium 1 g, citrate pH 6.75, 7 days 0° C., in 100 mL water, 10 mL + amikacin sulfate 40 mg, room temperature, Time 1 h): 94.80% | amount of component as percentage with respect to the amount at the initial time (Example 17: freeze-dried cefoperazone sodium 4 g, sulbactam sodium 1 g, citrate pH 6.75, 7 days 0° C., in 100 mL water, 10 mL + amikacin sulfate 40 mg, room temperature, Time 2 h): 94.06% | amount of component as percentage with respect to the amount at the initial time (Example 17: freeze-dried cefoperazone sodium 4 g, sulbactam sodium 1 g, citrate pH 6.75, 7 days 0° C., in 100 mL water, 10 mL + amikacin sulfate 40 mg, room temperature, Time 4 h): 94.12% | amount of component as percentage with respect to the amount at the initial time (Example 17: freeze-dried cefoperazone sodium 4 g, sulbactam sodium 1 g, citrate pH 6.75, 7 days 0° C., in 100 mL water, 10 mL + amikacin sulfate 40 mg, room temperature, Time 6 h): 93.15% | amount of component as percentage with respect to the amount at the initial time (Example 17: freeze-dried cefoperazone sodium 4 g, sulbactam sodium 1 g, citrate pH 6.75, 7 days 0° C., in 100 mL water, 10 mL + amikacin sulfate 40 mg, room temperature, Time 8 h): 94.50%
